This is an account of results in patent publication US20080161367A1, “Insecticidal Mixtures” (BASF Aktiengesellschaft, priority 2005, published 2008).

For data set [1], the system named is Western corn rootworm larvae (Diabrotica virgifera virgifera). The data set can be described thus: Seed treatment of field corn seeds, Western corn rootworm larval mortality. Format: in vivo. As to conditions: corn seed treatment at the rate printed in the row (fipronil 0.005, clothianidin 0.05 g a.i./100 kg seed); 2nd instar larvae; mortality 1 day after infestation, adjusted for untreated controls. How it is done:
(§1) Each mixture partner has been evaluated separately at the same rates as used in the mixtures. Synergism was determined by comparing the expected biological effect on plant health or on disease control from the mixture based on the individual effects from the separate partners to the biological effect observed with the mixture. Abbott's formula has be used to make this comparison.
Field corn seeds (Zea mays) were treated with a mixture of commercially available fipronil SC formulation (REGENT® 4 SC—479 g a.i./L) at rates of 0.005 g ai/100 kg seed with commercially available clothianidin formulation (PONCHO® 600—600 g a.i./L) at 0.05 g ai/100 kg seed. In addition, there was a treatment with each mixture partner at its respective solo rate. The carrier for all treatments was water. The respective formulation(s) and water were mixed in a 20 ml vial. Then 25 seeds were added, and the vial was vortexed. After treatment, seeds were allowed to dry. […] Petri plates were incubated at 26° C., and insect mortality was evaluated 1 day later. Percent mortalities were calculated adjusting for any mortality in the untreated controls.
The expected percent mortality for the mixture was calculated based on the percent mortalities observed when each mixture partner was applied solo at the rate it was applied in the mixture using Abbott's formula as follows: […]

The test system of data set [2] is Colorado potato beetle larvae (Leptinotarsa decemlineata). The data set can be described thus: Foliar insecticidal activity on eggplant, Colorado potato beetle feeding damage. Format: in vivo. Conditions: foliar spray on eggplant at 0.05 ppm each; 2nd instar larvae; evaluated 3 days later, relative to untreated controls. How it is done: as §1
The foliage of eggplant plants (Solanum melongena, variety Black Beauty) at the 4th to 5th true-leaf stage was treated with a mixture of commercially available fipronil SC formulation (REGENT® 4 SC, 479 g a.i./L-) at 0.05 ppm with commercially available clothianidin formulation (PONCHO® 600, 600 g a.i./L) at 0.05 ppm. In addition, there was a treatment with each mixture partner at its respective solo rate. Treatment was by spraying the leaves to near run-off. The carrier for all treatments was water. Two leaves on each of three plants were sprayed per treatment. […] Insect feeding damage to the foliage was evaluated 3 days later. Percent reductions in insect feeding damage were calculated based on the untreated controls.
The expected reduction in feeding damage for the mixture was calculated based on the percent reductions observed when each mixture partner was applied solo at the rate it was applied in the mixture using Abbott's formula as follows: […]

Molecules are shown by their SMILES.

As to `N#Cc1nn(-c2c(Cl)cc(C(F)(F)F)cc2Cl)c(N)c1[S+]([O-])C(F)(F)F` (stereo not shown) [Fipronil, fipronil], the “Actual Mixture Response [% Larval Mortality]” value in data set [1] is on record as 0%. Further, the “Actual Mixture Response [% Reduction in Insect Feeding Injury]” value in data set [2] was 0%.

Take `CN/C(=N\[N+](=O)[O-])NCc1cnc(Cl)s1` [Clothianidin, clothianidin]: the “Actual Mixture Response [% Larval Mortality]” value in data set [1] was 14%. Further, the “Actual Mixture Response [% Reduction in Insect Feeding Injury]” value in data set [2] worked out at 21%.
